Among the test systems are HCT-15 colon; SF-539 CNS; NCI-H226 lung; HOP-62 NSCLC; SF-295 CNS; SK-MEL-5 melanoma; HCC-2998 colon; OVCAR-3 ovarian; UO-31 renal; SN12C renal; CAKI-1 renal; SNB-19 CNS; EKVX NSCLC.
What all share (test): NCI tumour cell line growth inhibition, 48 h

TGI and GI50 data for 11 compounds are collected here from PubChem BioAssay (NCI).

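These data come from cells grown in 96-well plates and exposed to compound for 48 hours at five concentrations. GI50: concentration for 50% inhibition of growth. Definition used: TGI = concentration required for complete inhibition of growth.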 Some results are limits rather than exact numbers.

Consider `CC(=O)OC1COC(n2c(N)c(C#N)c(C)c(C#N)c2=S)C(OC(C)=O)C1OC(C)=O` (configuration not stated), for which the TGI in the experiment on HCT-15 colon, with SF-539 CNS, with NCI-H226 lung, in the experiment with HOP-62 NSCLC, with SF-295 CNS and in the experiment on SK-MEL-5 melanoma was > 100 µM throughout. Besides, the TGI with HCC-2998 colon, in the experiment on OVCAR-3 ovarian, in the experiment with UO-31 renal, in the experiment with SN12C renal, with CAKI-1 renal and with SNB-19 CNS was > 100 µM in each case. The GI50 with SNB-19 CNS is > 100 µM.
`Cc1cc2c(s1)C(=O)c1sccc1C2=O`: the TGI amounted to 2.52 µM with HCT-15 colon; 0.622 µM with SF-539 CNS; 3.37 µM in the experiment with NCI-H226 lung; 1.15 µM with SF-295 CNS; 0.301 µM with SK-MEL-5 melanoma; 3.15 µM with HCC-2998 colon. Besides, the TGI with OVCAR-3 ovarian is 2.19 µM; in the experiment on UO-31 renal, 2.29 µM; in the experiment with SN12C renal, 1.25 µM; in the experiment on EKVX NSCLC, 3.32 µM; with CAKI-1 renal, 3.17 µM; in the experiment with SNB-19 CNS, 3.04 µM.
Regarding `C[C@]12CC(c3ccccc3O1)C(C(=O)NC13CC4CC(CC(C4)C1)C3)C(=O)N2` (some centres not stated), the TGI with HCT-15 colon was 60.8 µM; with NCI-H226 lung, 71.3 µM; in the experiment on HOP-62 NSCLC, > 100 µM; in the experiment with SF-295 CNS, > 100 µM; with SK-MEL-5 melanoma, 33.3 µM; in the experiment on HCC-2998 colon, > 100 µM. In addition, the TGI in the experiment with OVCAR-3 ovarian was > 100 µM; in the experiment on UO-31 renal, 44.3 µM; in the experiment with EKVX NSCLC, 19.3 µM; in the experiment with CAKI-1 renal, > 100 µM; in the experiment on SNB-19 CNS, > 100 µM.
`Cc1cc2oc(=O)[nH]c(=S)c2c(C)c1C`: the TGI in the experiment with HCT-15 colon, in the experiment on SF-539 CNS, in the experiment with NCI-H226 lung, in the experiment with HOP-62 NSCLC, in the experiment on SF-295 CNS and in the experiment with HCC-2998 colon was > 100 µM in each case. For the same compound, the TGI with OVCAR-3 ovarian, with UO-31 renal, in the experiment on SN12C renal, in the experiment with EKVX NSCLC and in the experiment with SNB-19 CNS was > 100 µM throughout.
On to `CNC(=O)c1n[nH][nH]c1=O`, for which the TGI with HCT-15 colon, with NCI-H226 lung, in the experiment with HOP-62 NSCLC, in the experiment on SF-295 CNS, in the experiment with SK-MEL-5 melanoma and in the experiment on HCC-2998 colon was > 100 µM in each case. In addition, the TGI in the experiment with UO-31 renal, in the experiment on SN12C renal, in the experiment on EKVX NSCLC, in the experiment with CAKI-1 renal and with SNB-19 CNS was > 100 µM throughout.
On to `CCCCCCCCCCCCCCCCP(=O)(O)OP(=O)(O)OCC1OC(n2cnc3c(N)ncnc32)C(O)C1O` (configuration not stated), for which the TGI with HCT-15 colon is 59.4 µM; in the experiment on SF-539 CNS, 43.5 µM; in the experiment with NCI-H226 lung, 39.6 µM; in the experiment on HOP-62 NSCLC it was 37.3 µM; in the experiment on SK-MEL-5 melanoma, > 100 µM; with HCC-2998 colon, 44.8 µM. Besides, the TGI with OVCAR-3 ovarian was 88.1 µM; in the experiment on UO-31 renal it was 30 µM; with SN12C renal, 59.5 µM; in the experiment with EKVX NSCLC it was > 100 µM; in the experiment with CAKI-1 renal, 64.4 µM; with SNB-19 CNS it was 42 µM.
As for `CCOC(=O)c1nc2ccc(C(F)(F)F)cc2nc1Oc1ccc(F)cc1`, the TGI in the experiment on HCT-15 colon, in the experiment on SF-539 CNS, in the experiment on NCI-H226 lung, with HOP-62 NSCLC, in the experiment on SF-295 CNS and in the experiment on SK-MEL-5 melanoma was > 100 µM in each case. In addition, the TGI in the experiment on HCC-2998 colon, with UO-31 renal, with EKVX NSCLC, in the experiment with CAKI-1 renal and in the experiment on SNB-19 CNS was > 100 µM throughout.
Consider `CCOC(=O)c1c(NC(=O)Nc2ccccc2)c(C(N)=O)c2n1CCCCC2`, for which the TGI in the experiment with HCT-15 colon, with SF-539 CNS, with NCI-H226 lung, in the experiment on HOP-62 NSCLC, in the experiment on SF-295 CNS and in the experiment with SK-MEL-5 melanoma was > 100 µM each time. Further, the TGI in the experiment with HCC-2998 colon, in the experiment on UO-31 renal, with EKVX NSCLC, with CAKI-1 renal and with SNB-19 CNS was > 100 µM in each case.
In the case of `COc1ccc(C2C(Cl)C(=O)N2NC(=O)Cc2ccccc2)cc1` (configuration not stated), the TGI in the experiment with HCT-15 colon, in the experiment on NCI-H226 lung, in the experiment on HOP-62 NSCLC, in the experiment on SF-295 CNS, in the experiment with SK-MEL-5 melanoma and in the experiment on HCC-2998 colon was > 100 µM each time. Also, the TGI in the experiment on OVCAR-3 ovarian, in the experiment with UO-31 renal, with SN12C renal, in the experiment with EKVX NSCLC, in the experiment with CAKI-1 renal and in the experiment on SNB-19 CNS was > 100 µM each time.
`CC(=O)OCC1OC(O[C@@H]2c3c(O)c4c(c(O)c3C3=C(NN(c5ccc([N+](=O)[O-])cc5[N+](=O)[O-])[Se]3=O)[C@@]2(C)O)C(=O)c2ccccc2C4=O)C(OC(C)=O)C(OC(C)=O)C1OC(C)=O` (some centres not stated): the TGI in the experiment on HCT-15 colon was 0.873 µM; in the experiment with NCI-H226 lung, 0.947 µM; in the experiment on HOP-62 NSCLC, 0.714 µM; in the experiment on SF-295 CNS, 1 µM; in the experiment on SK-MEL-5 melanoma, 0.42 µM; in the experiment with HCC-2998 colon it was 1.2 µM. The TGI worked out at 0.336 µM in the experiment on OVCAR-3 ovarian; 0.548 µM with UO-31 renal; 0.552 µM in the experiment with SN12C renal; 0.677 µM in the experiment with EKVX NSCLC; 0.722 µM in the experiment on CAKI-1 renal.
In the case of `O=C1CCCc2cc3c(cc21)CCC3C(=O)O` (configuration not stated), the TGI in the experiment on HCT-15 colon, in the experiment on SF-539 CNS, in the experiment on NCI-H226 lung, in the experiment with HOP-62 NSCLC, with SF-295 CNS and with SK-MEL-5 melanoma was > 100 µM throughout. In addition, the TGI in the experiment with HCC-2998 colon, in the experiment on UO-31 renal, in the experiment on SN12C renal, in the experiment with EKVX NSCLC, in the experiment on CAKI-1 renal and in the experiment with SNB-19 CNS was > 100 µM in each case.
